Assay results: patent US11352396B2, “Antimicrobial peptides and methods of using same” (Zoetis Services LLC, priority 2017, dated 2022)

Legend:
[1] = tested on: E. coli ATCC 25922; format: cell-based; conditions: E. coli 25922, Table 6
Experimental: (§1) Peptides according to SEQ ID NOs as listed in Table 1 were prepared by a commercial manufacturer (CS Bio, Menlo Park, Calif.) using solid phase synthesis. Antimicrobial activity was assessed by determining the Minimal Inhibitory Concentration (MIC) against S. aureus and E. coli. Briefly, Microbroth MICs were performed using CLSI methodology (VET01-S2). For S. aureus and E. coli ATCC strains, TSA with 5% lysed horse blood agar was used for overnight culturing at 37° C. ambient air. A 0.5 mM stock for each peptide was made with cell culture water, 0.01% acetic acid and serially diluted and spotted (10 μL) in a 96-well plate for in assay dose titration concentration of 50 μM to 0.05 μM. 0.5 McFarland Standard of each strain was diluted 1:250 in Mueller-Hinton Broth (MHB). 90 μL of culture suspension was then added upon drug in the 96-well plate for overnight incubation for 18-20 hours. The MIC was determined visually at the first well of no visible growth at the corresponding concentration.

[2] = tested on: S. aureus ATCC 29213; format: cell-based; design: key to SA 29213: MIC in μM (lowest conc. with no visible growth); conditions: S. aureus 29213, Table 6
Experimental: as §1

[3] = tested on: MRSP (Methicillin-Resistant Staphylococcus pseudintermedius); assay: MIC against selected strains of MRSP; format: cell-based; design: key to MIC MRSP 72192 / MIC MRSP 76923 / MR 71994 / Mr 88493 / MR 72035 / MR 72192 / MR 76923 / MR 79882 / MR 80279 / MR 81926 / MR 86002 / MR 87665: MIC in μM (visual, first well with no growth); conditions: for MR 71994: MRSP strain 71994, Table 6; for MR 72035: MRSP strain 72035, Table 6; for MR 72192: MRSP strain 72192, Table 6; for MR 76923: MRSP strain 76923, Table 6; for MR 79882: MRSP strain 79882, Table 6; for MR 80279: MRSP strain 80279, Table 6; for MR 81926: MRSP strain 81926, Table 6; for MR 86002: MRSP strain 86002, Table 6; for MR 87665: MRSP strain 87665, Table 6; for Mr 88493: MRSP strain 88493, Table 6
Method in brief: (§2)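 Broth microdilution MIC following CLSI VET01-S2: peptides titrated 50 μM to 0.05 μM in assay, inoculum a 0.5 McFarland suspension diluted 1:250 in Mueller-Hinton broth. Incubated overnight (18–20 h); MIC taken visually as lowest concentration without visible growth.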

[4] = tested on: Canine-derived epithelial keratinocyte (CPEK) cells; format: cell-based
Method in brief: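 CPEK cells were dosed with peptides at 50 μM to 0.05 μM and incubated overnight at 37 °C, 5% CO2. Viability was read by CellTiter-Glo luminescence. Percent effect was normalised to 0.1% Triton X-100 (high) and phosphate buffer alone (zero).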

[5] = tested on: cRBC; format: cell-based, canine
Method in brief: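 Washed, plasma-free red cells were incubated with peptide titrated from 50 µM to 0.05 µM for 1 h at 37 °C. Hemolysis was read as OD at 405 nm, scaled between phosphate buffer alone (0%) and 1% Triton X-100 (100%).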

[6] = tested on: MSSP (Methicillin-Susceptible Staphylococcus pseudintermedius); assay: MIC against selected strains of MSSP; format: cell-based; design: MIC MSSP 49051 / MIC MSSP 81923 / MIC MSSP 84250 / Effect on MSSP 86000 / Effect on MSSP 72036 / Effect on MSSP 78032: unit not given beside the values; Effect on MSSP 71990 / Effect on MSSP 86001 / Effect on MSSP 72191 / Effect on MSSP 76986 / Effect on MSSP 77378 / Effect on MSSP 81923 / Effect on MSSP 84250 / Effect on MSSP 84658: unit: µM; conditions: for SP 49051: S. pseudintermedius 49051, Table 6; for Effect on MSSP 71990: strain 71990, Table 5; for Effect on MSSP 72036: strain 72036, Table 5; for Effect on MSSP 72191: strain 72191, Table 5; for Effect on MSSP 76986: strain 76986, Table 5; for Effect on MSSP 77378: strain 77378, Table 5; for Effect on MSSP 78032: strain 78032, Table 5; for Effect on MSSP 81923: strain 81923, Table 5; for Effect on MSSP 84250: strain 84250, Table 5; for Effect on MSSP 84658: strain 84658, Table 5; for Effect on MSSP 86000: strain 86000, Table 5; for Effect on MSSP 86001: strain 86001, Table 5
Method in brief: as §2

Substance | EC 25922 [1] [µM] | SA 29213 [2] | MR 71994 [3] | MR 72035 [3] | MR 72192 [3] | MR 76923 [3] | MR 79882 [3] | MR 80279 [3] | MR 81926 [3] | MR 86002 [3] | MR 87665 [3] | Mr 88493 [3] | CPEK (50 μM) [4] | cRBC (50 μM) [5] | SP 49051 [6] | Effect on MSSP 71990 [6] | Effect on MSSP 72036 [6] | Effect on MSSP 72191 [6] | Effect on MSSP 76986 [6] | Effect on MSSP 77378 [6] | also measured
107 (KWCFRVCWRGICYRRCRD; Artificial Antimicrobial peptide) [compound 107] | 3.1 | 3.1 | 1.6 | 3.1 | 1.6 | 1.6 | 0.8 | 1.6 | 1.6 | 1.6 | 1.6 | 1.6 | 26.3 | 101.8 | 1.6 | 1.6 | 1.6 | 1.6 | 1.6 | 1.6 | Effect on MSSP 78032 [6]: 1.6; Effect on MSSP 81923 [6]: 1.6; Effect on MSSP 84250 [6]: 1.6; Effect on MSSP 84658 [6]: 1.6; Effect on MSSP 86000 [6]: 1.6; Effect on MSSP 86001 [6]: 1.6
116 (KWCFYVCYRGICYRRCND; Artificial Antimicrobial peptide) [compound 116] | 0.8 | 6.2 | 1.6 | 1.6 | 1.6 | 1.6 | 1.6 | 1.6 | 1.6 | 3.1 | 1.6 | 1.6 | 16.0 | 87.0 | 1.6 | 1.6 | 1.6 | 1.6 | 1.6 | 1.6 | Effect on MSSP 78032 [6]: 1.6; Effect on MSSP 81923 [6]: 1.6; Effect on MSSP 84250 [6]: 1.6; Effect on MSSP 84658 [6]: 1.6; Effect on MSSP 86000 [6]: 1.6; Effect on MSSP 86001 [6]: 1.6
106 (KWCWRVCYRGICYRRCRD; Artificial Antimicrobial peptide) [compound 106] | 3.1 | 3.1 | 1.6 | 3.1 | 1.6 | 1.6 | 0.8 | 1.6 | 1.6 | 1.6 | 1.6 | 3.1 | 25.2 | 101.5 | 1.6 | 1.6 | 1.6 | 1.6 | 1.6 | 0.8 | Effect on MSSP 78032 [6]: 1.6; Effect on MSSP 81923 [6]: 1.6; Effect on MSSP 84250 [6]: 1.6; Effect on MSSP 84658 [6]: 1.6; Effect on MSSP 86000 [6]: 1.6; Effect on MSSP 86001 [6]: 1.6
97 (KRCFRVCYRGICYRRCRD; Artificial Antimicrobial peptide) [compound 97] | 3.1 | 6.2 | 1.6 | 3.1 | 3.1 | 1.6 | 1.6 | 3.1 | 1.6 | 3.1 | 3.1 | 3.1 | 12.9 | 31.2 | 3.1 | 3.1 | 3.1 | 3.1 | 1.6 | 1.6 | Effect on MSSP 78032 [6]: 3.1; Effect on MSSP 81923 [6]: 3.1; Effect on MSSP 84250 [6]: 3.1; Effect on MSSP 84658 [6]: 3.1; Effect on MSSP 86000 [6]: 1.6; Effect on MSSP 86001 [6]: 1.6
103 (KWCFRVCKRGICYRRCRD; Artificial Antimicrobial peptide) [compound 103] | 6.2 | 25 | 3.1 | 3.1 | 3.1 | 3.1 | 3.1 | 3.1 | 3.1 | 3.1 | 3.1 | 3.1 | −0.5 | 7.9 | 3.1 | 3.1 | 3.1 | 3.1 | 3.1 | 3.1 | Effect on MSSP 78032 [6]: 3.1; Effect on MSSP 81923 [6]: 3.1; Effect on MSSP 84250 [6]: 6.2; Effect on MSSP 84658 [6]: 3.1; Effect on MSSP 86000 [6]: 3.1; Effect on MSSP 86001 [6]: 3.1
